Source: US6221862A, “Microbicide 1,4,2-dioxazine derivatives” (Bayer Aktiengesellschaft, priority 1997, dated 2001)

Legend:
Pyricularia oryzae = assay type: in vivo; conditions: rice, protective, 750 g/ha, 4 days after inoculation; 0% = control, 100% = no infestation
Puccinia = Puccinia test (wheat)/protective; assay type: in vivo; conditions: protective, 250 g/ha, 10 days after inoculation, 0% = control, 100% = no infestation
Experimental: Puccinia test (wheat)/protective
(§1) Solvent: 25 parts by weight of N,N-dimethylacetamide
(§2) Emulsifier: 0.6 part by weight of alkylaryl polyglycol ether
(§3) To prepare an appropriate formulation of the active compound, 1 part by weight of active compound is mixed with the stated amounts of solvent and emulsifier, and the concentrate is diluted with water to the desired concentration.
(§4) To test for protective activity, young plants are sprayed with the formulation of the active compound in the stated application amount. After the spray coating has dried on, the plants are sprayed with the conidia suspension of Puccinia. The plants remain in an incubation cabin at 20° C. and 100% relative atmospheric humidity for 48 hours.
The plants are then placed in a greenhouse at a temperature of about 20° C. and a relative atmospheric humidity of 80% in order to promote the development of rust pustules.
(§5) Evaluation is carried out 10 days after the inoculation. In this evaluation, 0% means a degree of action which corresponds to that of the control, while a degree of action of 100% means that no infestation is observed.

[1] = logP determination by HPLC (EEC Directive 79/831 Annex V. A8); assay type: physicochemical; conditions: acetonitrile/0.1% aqueous phosphoric acid, gradient method, acetonitrile/0.1% strength aqueous phosphoric acid
Experimental: The logP values were determined in accordance with EEC Directive 79/831 Annex V. A8 by HPLC (gradient method, acetonitrile/0.1% strength aqueous phosphoric acid)

Phytophthora infestans = assay type: in vivo; conditions: tomato, protective, 100 g/ha, 3 days after inoculation; 0% = control, 100% = no infestation
Puccinia recondite = assay: Puccinia test (wheat)/curative; assay type: in vivo; conditions: curative, 250 g/ha, 10 days after inoculation, 0% = control, 100% = no infestation
Experimental: Puccinia test (wheat)/curative
Solvent: 10 parts by weight of N,N-dimethylacetamide
as §2, §3
To test for curative activity, young plants are sprayed with a conidia suspension of Puccinia recondite The plants remain in an incubation cabin at 20° C. and 100% relative atmospheric humidity for 48 hours. The plants are then sprayed with the active compound formulation in the stated application amount.
The plants are placed in a greenhouse at a temperature of about 20° C. and a relative atmospheric humidity of about 80% in order to promote the development of rust pustules.
as §5

Leptosphaeria nodorum [2] = assay: Leptosphaeria nodorum test (wheat)/protective; assay type: in vivo; conditions: protective, 250 g/ha, 10 days after inoculation, 0% = control, 100% = no infestation
Experimental: Leptosphaeria nodorum test (wheat)/protective
as §1, §2
To test for appropriate formulation of the active compound, 1 part by weight of active compound is mixed with the stated amounts of solvent and emulsifier, and the concentrate is diluted with water to the desired concentration.
as §4, with “a spore” for “the conidia”, “Leptosphaeria nodorum.” for “Puccinia.”
The plants are placed in a greenhouse at a temperature of about 15° C. and a relative atmospheric humidity of 80%.
as §5

Leptosphaeria nodorum [3] = assay: Leptosphaeria nodorum test (wheat)/curative; assay type: in vivo; conditions: curative, 250 g/ha, 10 days after inoculation, 0% = control, 100% = no infestation
Experimental: Leptosphaeria nodorum test (wheat)/curative
Solvent: 10 parts by weight of N-methyl-pyrrolidone
as §2, §3
To test for curative activity, young plants are sprayed with a conidia suspension of Leptosphaeria nodorum. The plants remain in an incubation cabin at 20° C. and 100% relative atmospheric humidity for 48 hours and are then sprayed with the formulation of the active compound in the stated application amount.
The plants are placed in a greenhouse at a temperature of about 15° C. and a relative atmospheric humidity of about 80%.
as §5

Plasmopara viticola = assay: Plasmopara test (vine)/protective; assay type: in vivo; conditions: protective, 100 g/ha, 6 days after inoculation, 0% = control, 100% = no infestation
Experimental: Plasmopara test (vine)/protective
Solvent: 47 parts by weight of acetone
Emulsifier: 3 parts by weight of alkylaryl polyglycol ether
as §3
To test for protective activity, young plants are sprayed with the formulation of the active compound in the stated application amount. After the spray coating has dried on, the plants are inoculated with an aqueous spore suspension of Plasmopara viticola and then remain in an incubation cabin at about 20° C. and 100% relative atmospheric humidity for 1 day. The plants are then placed in a greenhouse at about 21° C. and about 90% relative atmospheric humidity for 5 days. The plants are then moistened and placed in an incubation cabin for 1 day.
Evaluation is carried out 6 days after the inoculation. In this evaluation, 0% means a degree of action which corresponds to that of the control, while a degree of action of 100% means that no infestation is observed.

Compound | degree of action (Pyricularia oryzae) | degree of action (Puccinia) | chromatographic logP [1] | degree of action (Phytophthora infestans) | degree of action (Puccinia recondite) | degree of action (Leptosphaeria nodorum [2]) | degree of action (Leptosphaeria nodorum [3]) | degree of action (Plasmopara viticola)
CON=C(C1=NOCCO1)c1ccccc1CSC(=Nc1ccc(OC)nc1)C1CC1 [Example 1] | ≥ 70% | ≥ 90% | 3.04 | ≥ 90% | ≥ 100% | ≥ 90% | ≥ 95% | ≥ 90%
CON=C(C1=NOCCO1)c1ccccc1CSC(=Nc1ccc(OC)cc1)C1CC1 [Example 2] | ≥ 70% |  | 3.16 |  |  |  |  | 
CON=C(C1=NOCCO1)c1ccccc1CSC(=Nc1ccccc1C(F)(F)F)C1CC1 [Example 3] |  |  | 4.16 |  |  |  |  | 
